{"source": "patent US20040200144A1", "about": "“Plant growth regulator and a method of producing the regulator” (Dainichiseika Color & Chemicals Mfg. Co., Ltd., priority 2003, published 2004)", "format_in_all_cases": "in vivo", "key": {"[1]": {"tested_on": "radish young plants", "assay": "Dwarfing test of radish young plant", "settings": "for Plant Height / Dwarfing Rate: 5 ml per cell on 4th day, measured 20th day; for Dwarfing Rate: vs comparative group", "method": "(§1) 50 g of sodium tripolyphosphate was dissolved in 400 ml of distilled water at 80° C., 17.5 g of cinnamic acid was added to the sodium tripolyphosphate solution and dissolved by stirring, the resultant solution was diluted with distilled water until the total volume of solution was 500 ml, and thus 3.5% cinnamic acid aqueous solution (pH 6.5) was prepared. The aqueous solution was further diluted with distilled water 70 times or 17.5 times, and 0.05% cinnamic acid aqueous solution and 0.2% cinnamic acid aqueous solution were prepared, respectively.\n(§2) Nursery soil for house use was filled into paper joint pots (each with 24 cells: 34×43×50 mm/cell), water was sufficiently given to the soil, and seeds of carrots were sowed. After seeding, the pot was placed in the same greenhouse as described above to sprout. Subsequently, on the 5th day, the cinnamic aqueous acid solutions were added to the nursery soil in the joint pots. One of the joint pots (24 cells) was prepared as a 0.05% cinnamic acid aqueous solution addition group, and 5 ml of the 0.05% cinnamic acid aqueous solution was added to the nursery soil of each cell. Another one of the join pots was prepared as a 0.2% cinnamic acid aqueous solution addition group, and 5 ml of the 0.2% cinnamic acid aqueous solution was added to the nursery soil of each cell. The other one of the joint pots was prepared as a comparative group in which 5 ml of water is added to each cell, instead of the cinnamic acid aqueous solution. Subsequently, the cultivation of carrot young plants in each group was continued under general conditions. On the 27th day, the heights of young plants in each group were measured, the dwarfing rate (%) was calculated, and the dwarfing effect of cinnamic acid aqueous solution on carrot young plants was examined. […].\nIn the same way as in Example 12 except that seeds of radish were sowed, the dwarfing effect of cinnamic acid aqueous solution on radish young plants was examined. […]"}, "[2]": {"tested_on": "cauliflower young plants", "assay": "Dwarfing test of cauliflower young plant", "settings": "for Plant Height / Dwarfing Rate: 5 ml per cell on 4th day, measured 20th day; for Dwarfing Rate: vs comparative group", "method": "[The source words this procedure for another target and says it was used here with some conditions changed.] as §1, §2"}, "[3]": {"tested_on": "newmelon young plants", "assay": "Dwarfing test of newmelon young plant", "settings": "for Plant Height / Dwarfing Rate: 5 ml per cell on 7th day, measured 27th day; for Dwarfing Rate: vs comparative group", "method": "as §1, §2\nIn the same way as in Example 12 except that seeds of tomato were sowed, and that the cinnamic acid solutions were added to the nursery soil of the joint pot on the 7th day, the dwarfing effect of cinnamic acid aqueous solution on tomato young plants was examined. […].\nIn the same way as in Example 17 except that seeds of watermelon were sowed, and that plant heights were measured on the 27th day, the dwarfing effect of cinnamic acid aqueous solution on watermelon young plants was examined. […].\nIn the same way as in Example 21 except that seeds of newmelon were sowed, the dwarfing effect of cinnamic acid aqueous solution on newmelon young plants was examined. […]"}, "[4]": {"tested_on": "Chinese cabbage young plants", "assay": "Dwarfing test of Chinese cabbage young plant", "settings": "for Plant Height / Dwarfing Rate: 5 ml per cell on 4th day, measured 22nd day; for Dwarfing Rate: vs comparative group", "method": "Dwarfing rate (%)=[(the plant height of the comparative group)−(the plant height of an addition group)/the plant height of the comparative group]×100\n18.4 g of potassium hydroxide was dissolved in 400 ml of distilled water at 20° C., 50 g of cinnamic acid was added to the potassium hydroxide solution and dissolved by stirring, the resultant solution was diluted with distilled water until the total volume of solution was 500 ml, and thus 10% cinnamic acid aqueous solution (pH 8.8) was prepared. The aqueous solution was further diluted with distilled water 100 times or 33.3 times, and 0.1% cinnamic acid aqueous solution and 0.3% cinnamic acid aqueous solution were prepared, respectively.\nNursery soil for house use was filled into a polyethylene joint pot (36 cells: 45×45×30 mm/cell), water was sufficiently given to the soil, and seeds of Chinese cabbage were sowed. After seeding, the pot was placed in the same greenhouse as described above to sprout. Subsequently, on the 4th day, the cinnamic aqueous acid solutions were added to the nursery soil in the joint pot.\nAmong 36 cells, 12 cells were prepared as a 0.1% cinnamic acid aqueous solution addition group, and 5 ml of the 0.1% cinnamic acid aqueous solution was added to the nursery soil of each cell. Another 12 cells were prepared as a 0.3% cinnamic acid aqueous solution addition group, and 5 ml of the 0.3% cinnamic acid aqueous solution was added to the nursery soil of each cell. Remaining 12 cells were prepared as a comparative group in which 5 ml of water is added to each cell, instead of the cinnamic acid aqueous solution. Subsequently, the cultivation of Chinese cabbage young plants in each group was continued under general conditions. On the 22nd day, the heights of young plants in each group were measured, the dwarfing rate (%) was calculated, and the dwarfing effect of cinnamic acid aqueous solution on Chinese cabbage young plants was examined. […]"}, "[5]": {"tested_on": "watermelon young plants", "assay": "Dwarfing test of watermelon young plant", "settings": "for Plant Height / Dwarfing Rate: 5 ml per cell on 7th day, measured 27th day; for Dwarfing Rate: vs comparative group", "method": "After seeding, the pot was placed in the same greenhouse as described above to sprout. Subsequently, on the 5th day, the cinnamic aqueous acid solutions were added to the nursery soil in the joint pots. One of the joint pots (24 cells) was prepared as a 0.05% cinnamic acid aqueous solution addition group, and 5 ml of the 0.05% cinnamic acid aqueous solution was added to the nursery soil of each cell. Another one of the join pots was prepared as a 0.2% cinnamic acid aqueous solution addition group, and 5 ml of the 0.2% cinnamic acid aqueous solution was added to the nursery soil of each cell. […] Subsequently, the cultivation of carrot young plants in each group was continued under general conditions. On the 27th day, the heights of young plants in each group were measured, the dwarfing rate (%) was calculated, and the dwarfing effect of cinnamic acid aqueous solution on carrot young plants was examined. From the results in Table 5, it became evident that the 0.05% and 0.2% cinnamic acid aqueous solutions are effective in dwarfing carrot young plants. In the same way as in Example 5 except that seeds of cauliflower were sowed, the cinnamic acid solutions were added to the nursery soil in the joint pot on the 4th day, and that heights of young plants in each group were measured on the 20th day, the dwarfing effect of cinnamic acid aqueous solution on cauliflower young plants was examined. From the results in Table 12, it became evident that the cinnamic acid aqueous solutions are effective in dwarfing cauliflower young plants. In the same way as in Example 12 except that seeds of tomato were sowed, and that the cinnamic acid solutions were added to the nursery soil of the joint pot on the 7th day, the dwarfing effect of cinnamic acid aqueous solution on tomato young plants was examined. From the results in Table 17, it became evident that the cinnamic acid aqueous solutions are effective in dwarfing tomato young plants. In the same way as in Example 17 except that seeds of watermelon were sowed, and that plant heights were measured on the 27th day, the dwarfing effect of cinnamic acid aqueous solution on watermelon young plants was examined. From the results in Table 21, it became evident that the cinnamic acid aqueous solutions are effective in dwarfing watermelon young plants."}}, "data": [{"smiles": "O=C(O)C=Cc1ccccc1", "note": "[cinnamic acid]", "values": [{"measurement": "Plant Height", "setting": "[1]; 0.05% aqueous solution", "value": 8.1, "unit": "cm"}, {"measurement": "Dwarfing Rate", "setting": "[1]; 0.05% aqueous solution", "value": 11.0, "unit": "%"}, {"measurement": "Plant Height", "setting": "[1]; 0.2% aqueous solution", "value": 7.1, "unit": "cm"}, {"measurement": "Dwarfing Rate", "setting": "[1]; 0.2% aqueous solution", "value": 22.0, "unit": "%"}, {"measurement": "dwarfing effect", "setting": "[1]; radish young plants, 0.05% and 0.2% aqueous solutions", "value": "effective"}, {"measurement": "Plant Height", "setting": "[2]; 0.05% aqueous solution", "value": 6.8, "unit": "cm"}, {"measurement": "Dwarfing Rate", "setting": "[2]; 0.05% aqueous solution", "value": 22.7, "unit": "%"}, {"measurement": "Plant Height", "setting": "[2]; 0.2% aqueous solution", "value": 5.0, "unit": "cm"}, {"measurement": "Dwarfing Rate", "setting": "[2]; 0.2% aqueous solution", "value": 43.2, "unit": "%"}, {"measurement": "dwarfing effect", "setting": "[2]; cauliflower young plants, 0.05% and 0.2% aqueous solutions", "value": "effective"}, {"measurement": "Plant Height", "setting": "[3]; 0.05% aqueous solution", "value": 7.3, "unit": "cm"}, {"measurement": "Dwarfing Rate", "setting": "[3]; 0.05% aqueous solution", "value": 6.4, "unit": "%"}, {"measurement": "Plant Height", "setting": "[3]; 0.2% aqueous solution", "value": 4.9, "unit": "cm"}, {"measurement": "Dwarfing Rate", "setting": "[3]; 0.2% aqueous solution", "value": 37.2, "unit": "%"}, {"measurement": "dwarfing effect", "setting": "[3]; newmelon young plants, 0.05% and 0.2% aqueous solutions", "value": "effective"}, {"measurement": "Plant Height", "setting": "[4]; 0.1% aqueous solution", "value": 7.0, "unit": "cm"}, {"measurement": "Dwarfing Rate", "setting": "[4]; 0.1% aqueous solution", "value": 23.9, "unit": "%"}, {"measurement": "Plant Height", "setting": "[4]; 0.3% aqueous solution", "value": 6.9, "unit": "cm"}, {"measurement": "Dwarfing Rate", "setting": "[4]; 0.3% aqueous solution", "value": 25.0, "unit": "%"}, {"measurement": "dwarfing effect", "setting": "[4]; Chinese cabbage young plants, 0.1% and 0.3% aqueous solutions", "value": "effective"}, {"measurement": "Plant Height", "setting": "[5]; 0.05% aqueous solution", "value": 9.3, "unit": "cm"}, {"measurement": "Dwarfing Rate", "setting": "[5]; 0.05% aqueous solution", "value": 15.5, "unit": "%"}, {"measurement": "Plant Height", "setting": "[5]; 0.2% aqueous solution", "value": 7.9, "unit": "cm"}, {"measurement": "Dwarfing Rate", "setting": "[5]; 0.2% aqueous solution", "value": 28.2, "unit": "%"}, {"measurement": "dwarfing effect", "setting": "[5]; watermelon young plants, 0.05% and 0.2% aqueous solutions", "value": "effective"}]}]}
